Consider eleven molecules from patent US20260159511A1, “SMALL MOLECULE STING ANTAGONISTS” (CURADEV PHARMA PVT. LTD., priority 2021, published 2026).

Molecules are shown by their SMILES.

The experiment deals with IRF pathway in THP1-Dual™ cells, THP-1 (HAQ). Put plainly: Reporter gene expression assay in THP-1 cells (THP1-Dual, IRF pathway Lucia luciferase reporter, 2′,3′-cGAMP stimulation). It is filed as cell-based, human. The settings on record: Homo sapiens; THP1-Dual cells preincubated with compound 10 minutes, stimulation with 5 μM 2′,3′-cGAMP for 20 hr, QUANTI-Luc readout of the supernatant; read-out: THP-1 (HAQ) Activity (IC50 value range). The essentials:
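THP-1-derived THP1-Dual cells (5×10^4) preincubated with compound for 10 minutes, then stimulated with 5 μM 2′,3′-cGAMP. After 20 hr, secreted Lucia luciferase (IRF pathway reporter) measured in supernatant by luminescence.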

Usually IC50 stands for the midpoint of a concentration-inhibition curve. Regarding `Cc1nc(N2CCSc3ccc(NC(=O)Nc4c[nH]c5ccccc45)cc32)ccc1F` [Example 102, 1-(4-(5-Fluoro-6-methylpyridin-2-yl)-3,4-dihydro-2H-benzo[b][1,4]thiazin-6-yl)-3-(1H-indol-3-yl)urea], the IC50 is under 1000 nM. Regarding `O=C(Nc1ccc2c(c1)N(c1ccccc1)CCS2)Nc1c[nH]c2ccccc12` [Example 103, 1-(1H-indol-3-yl)-3-(4-phenyl-3,4-dihydro-2H-benzo[b][1,4]thiazin-6-yl)urea], the IC50 is under 1000 nM. For the molecule `O=C(Nc1ccc2c(c1)SCCN2c1ccccc1)Nc1c[nH]c2ccccc12` [Example 104, 1-(1H-indol-3-yl)-3-(4-phenyl-3,4-dihydro-2H-benzo[b][1,4]thiazin-7-yl)urea], the IC50 is under 1000 nM. Consider `O=C(Nc1ccc2c(c1)N(c1ccccn1)CCS2)Nc1c[nH]c2ccccc12` [Example 105, 1-(1H-indol-3-yl)-3-(4-(pyridin-2-yl)-3,4-dihydro-2H-benzo[b][1,4]thiazin-6-yl)urea], for which the IC50 is under 1000 nM. Under `O=C(Nc1ccc2c(c1)N(c1cccc(F)n1)CCS2)Nc1c[nH]c2ccccc12` [Example 106, 1-(4-(6-fluoropyridin-2-yl)-3,4-dihydro-2H-benzo[b][1,4]thiazin-6-yl)-3-(1H-indol-3-yl)urea] stands under 1000 nM; under `C[C@H]1c2ccc(NC(=O)Nc3c[nH]c4ccccc34)cc2N(Cc2ccccc2)C(=O)N1C` [Example 107, (S)-1-(1-Benzyl-3,4-dimethyl-2-oxo-1,2,3,4-tetrahydroquinazolin-7-yl)-3-(1H-indol-3-yl)urea], under 1000 nM; under `C[C@H]1c2ccc(NC(=O)Nc3c[nH]c4ccccc34)cc2N(Cc2c(F)ccc(O)c2Cl)C(=O)N1C` [Example 108, (S)-1-(1-(2-chloro-6-fluoro-3-hydroxybenzyl)-3,4-dimethyl-2-oxo-1,2,3,4-tetrahydroquinazolin-7-yl)-3-(1H-indol-3-yl)urea], 1000 to 10000 nM. In the case of `N#Cc1ccc2[nH]cc(NC(=O)Nc3ccc4c(c3)N(Cc3ccccc3)CCS4)c2c1` [Example 109, 1-(4-benzyl-3,4-dihydro-2H-benzo[b][1,4]thiazin-6-yl)-3-(5-cyano-1H-indol-3-yl)urea], the IC50 is under 1000 nM.

For the molecule `Cc1cc(CN2CCSc3ccc(NC(=O)Nc4c[nH]c5ccc(F)cc45)cc32)on1` [Example 110, 1-(5-fluoro-1H-indol-3-yl)-3-(4-((3-methylisoxazol-5-yl)methyl)-3,4-dihydro-2H-benzo[b][1,4]thiazin-6-yl)urea], the IC50 was under 1000 nM. For `CC1CN(Cc2cc(F)cc(Cl)c2)c2cc(NC(=O)Nc3c[nH]c4ccc(F)cc34)ccc2S1` (centres unmarked) [Example 111, 1-(4-(3-chloro-5-fluorobenzyl)-2-methyl-3,4-dihydro-2H-benzo[b][1,4]thiazin-6-yl)-3-(5-fluoro-1H-indol-3-yl)urea] the value was under 1000 nM; for `O=C(Nc1ccc2c(c1)N(Cc1ccccc1)C(=O)CS2)Nc1c[nH]c2ccc(Br)cc12` [Example 112, 1-(4-benzyl-3-oxo-3,4-dihydro-2H-benzo[b][1,4]thiazin-6-yl)-3-(5-bromo-1H-indol-3-yl)urea], under 1000 nM.
